Results reported in patent US12416052B2, “Capturing, concentrating, and detecting microbes in a sample using magnetic ionic liquids and recombinase polymerase amplification” (priority 2019, dated 2025).
Several values for one entry are separate records, joined by “and”; a condition that tells them apart may be missing. Equal values may be shown once.

Key:
Salmonella serovars = type: cell-based
Procedure: (§1) The following statistical analysis was performed in SAS 9.4. Four master suspensions of bacteria were prepared for four Salmonella enterica serovars: subsp. typhimurium, subsp. arizonae, subsp. diarizonae and subsp. houtenae. Two master suspensions were made for the remaining three Salmonella serovars or species: S. enterica subsp. indica, subsp. salamae and S. bongori. For E. coli O157:H7, two master suspensions of bacteria were prepared for each of the eight strains studied. For all bacteria tested, two replicate extractions from the same master suspension were performed, using the 10-3 dilution. Following MIL-based capture, back-extraction solutions were plated to non-selective agar (TSA) and selective agar (BSA) for Salmonella and SMAC for E. coli. To identify whether significant differences existed for the capture of Salmonella and E. coli O157:H7, we applied a linear mixed model for the response variable (enrichment factor) with log transformation in order to reduce skewness. […]
(§2) In order to explore the broader utility of our approach, evaluation of additional cell types is needed. […] We later determined that VRBGA was a suitable common medium for this purpose and used this in our statistical analysis. […] Enrichment factors were calculated for Salmonella on both non-selective (TSA) and selective agars (BSA) and for E. coli O157:H7 on non-selective agar (TSA). […]

E. coli O157:H7 = type: cell-based, Escherichia coli; details: no significant differences (p-value=0.4491)
Procedure: as §1, §2

[1] = test system: S. enterica subsp. arizonae; type: cell-based, Salmonella enterica; design: key to Relative Affinity for MIL: +++++: higher losses during wash step are due to lower cellular affinity for the MIL; ++++: higher losses during wash step are due to lower cellular affinity for the MIL; +++: higher losses during wash step are due to lower cellular affinity for the MIL; ++: higher losses during wash step are due to lower cellular affinity for the MIL; +: higher losses during wash step are due to lower cellular affinity for the MIL
Procedure: (§3) A universal schematic for MIL-based cell extraction is depicted in FIG. 7B. A 1 mL volume of diluted cell suspension was added to a flat-bottomed 4-mL screw cap glass vial. Fifteen microliters of either the Ni(II) or Dy(III) MIL was added and dispersed into microdroplets by vortex agitation for 30 s. The aqueous phase was decanted following dispersive extraction, and the MIL was subjected to a brief wash step using 1 mL of nuclease-free water (Integrated DNA Technologies, Coralville, IA, USA) to ensure adequate removal of loosely or incidentally bound cells. After washing, release of viable cells from the MIL extraction phase was carried out using a “back-extraction” step accomplished through addition of 1 mL of an ionically-rich nutritive medium comprised of 20 g L^−1 tryptone and 10 g L^−1 NaCl, followed by a 120 s vortex step. After back-extraction, aliquots of the cell-enriched back-extraction medium were enumerated using the track dilution method using 100×100 mm square, gridded TSA, BSA, CA or VRBGA plates.
(§4) Following back-extraction, aliquots of the cell-enriched back-extraction medium were serially diluted in 0.1% peptone water and a 10 μL aliquot of each dilution was applied to a separate lane on square plates containing an appropriate agar medium. The plates were then tilted at an approximately 80° angle for 15 min to allow the droplets to travel toward the opposite end of the plate. The plates were incubated for 24 h at 37° C. (TSA, VRBGA), for 48 h at 37° C. (BSA) or for 24 h at 37° C. (CA). Colonies were counted and colony forming units (CFU) were determined. The enrichment factor (EF) for MIL-based extraction was calculated using Equation 1, where CMIL represents the concentration of bacteria in suspension following extraction using the MIL and CS is the initial concentration of bacteria in the sample.
(§5) In order to explore the broader utility of our approach, evaluation of additional cell types is needed. We began this extended evaluation of the Ni(II) MIL with seven representative DNA subgroups of Salmonella and eight strains of E. coli O157:H7. Briefly, a 1 mL aliquot of TSB was inoculated with 1×10^6 CFU mL^−1 of bacteria, and spiked with 15 μL of the Ni(II) MIL. MIL-based extraction was performed and 10 μL aliquots of the back-extraction solution were enumerated using TSA and BSA plates (Salmonella) or TSA plates (E. coli O157:H7). […] We later determined that VRBGA was a suitable common medium for this purpose and used this in our statistical analysis. Average CFU counts were compared to standards that were not exposed to the Ni(II) MIL. Enrichment factors were calculated for Salmonella on both non-selective (TSA) and selective agars (BSA) and for E. coli O157:H7 on non-selective agar (TSA). […] Note: As BSA is a Salmonella-specific agar E. coli O157:H7 was not plated to BSA in this example.
(§6) Although all of the strains assessed were capable of being enriched by the MIL, some species were physically enriched to greater extents than others with extraction. In order to further examine the cause for this finding, the number of captured cells lost to the wash solution was investigated. The wash step is performed after the MIL enrichment step in order to remove any incidentally-adsorbed bacteria prior to back-extraction. It is hypothesized that the cells with lower enrichment factors have lower affinities for the MIL and are therefore lost in greater number to the wash solution than those having higher enrichment factors. […] The percent-loss during the wash step ranged from 47-79%. […] EF data from Table 4 for three overlapping Salmonella strains are superimposed to highlight trends in percent-loss, relative affinity and EF.

[2] = test system: S. enterica subsp. diarizonae; type: cell-based, Salmonella enterica; design: key to Relative Affinity for MIL: +++++: higher losses during wash step are due to lower cellular affinity for the MIL; ++++: higher losses during wash step are due to lower cellular affinity for the MIL; +++: higher losses during wash step are due to lower cellular affinity for the MIL; ++: higher losses during wash step are due to lower cellular affinity for the MIL; +: higher losses during wash step are due to lower cellular affinity for the MIL
Procedure: as §3, §4, §5, §6

Density of MIL = type: physicochemical
[3] = 1×10^6 CFU mL^−1 in TSB, 15 μL MIL

CCCCCCCCCCCCCC[P+](CCCCCC)(CCCCCC)CCCCCC.O=C([CH-]C(=O)C(F)(F)F)C(F)(F)F.O=C([CH-]C(=O)C(F)(F)F)C(F)(F)F.O=C([CH-]C(=O)C(F)(F)F)C(F)(F)F.[Ni+2] [Ni(II) MIL, [P66614^+][Ni(hfacac)3^−]]
MIL-conferred injury: recovery on TSA or BSA (Salmonella serovars; no statistically significant differences (p-value=0.7248)): no detectable injury
recovery on VRBGA compared with TSA (Salmonella serovars; p-value=0.0004): significantly lower
MIL-conferred injury: recovery on TSA vs VRBGA (E. coli O157:H7): no injury could be detected
Relative Affinity for MIL [1]: +
Enrichment Factor (BSA) [1, 3]: 2 and 4
Enrichment Factor (TSA) [1, 3]: 3
Percent-Loss ([1]; cells lost to wash solution): 79 ± 1%
Relative Affinity for MIL [2]: +++++
Enrichment Factor (BSA) [2, 3]: 11
Enrichment Factor (TSA) [2, 3]: 7
Percent-Loss ([2]; cells lost to wash solution: wash counts / (wash + back-extraction counts) × 100): 47 ± 7%
density (Density of MIL): ~1.3 g/mL
